Source: patent US8354433B2, “Anti-inflammatory agents as virostatic compounds” (4SC AG, priority 2009, dated 2013)
Where two headings read alike, the source gives them in different places.

Assays:
Vero cells [1] = details: African green monkey
RSV Strain Long = assay: microbe, parasite or virus in culture; type: cell-based; details: human respiratory syncytial virus, Vero, read-out: Antiviral Activity EC50
WNV Strain NY-99 = assay: microbe, parasite or virus in culture; type: cell-based; details: West Nile virus, Vero, read-out: Antiviral Activity EC50
YFV Strain 17D = assay: microbe, parasite or virus in culture; type: cell-based; details: Yellow fever virus, Vero, read-out: Antiviral Activity EC50
Vero cells [2] = details: African green monkey; remark: listed apart in the source
DENV Type 2 (New Guinea) = assay: microbe, parasite or virus in culture; type: cell-based; details: Dengue virus, Vero C1008, read-out: Antiviral Activity EC50
Vero cells [3] = details: African green monkey; remark: listed apart in the source
[4] = biological target: dihydroorotate dehydrogenase (DHODH) (Homo sapiens, UniProt Q02127); assay: DHODH inhibition, in vitro assay; type: biochemical
human PBMCs = assay: MTS cytotoxicity in human PBMCs; details: seven days
Influenza Virus (H7N7) = assay: microbe, parasite or virus in culture; type: cell-based, avian influenza virus (Fowl Plaque Virus; details: unidentified influenza virus, H7N7, A549, 16 h; for inhibition at 30 µM: read-out: Antiviral Activity % Inhibition
HIV-191US005 = assay: Anti-HIV efficacy in fresh human PBMCs (RT activity and p24 ELISA); type: cell-based, HIV-1; details: Human immunodeficiency virus 1, PBMC, 168 h
HBV = assay: Anti-HBV evaluation with HepG2 2.2.15 cells (extracellular HBV DNA, qPCR); type: cell-based; details: Hepatitis B virus, read-out: Antiviral Activity EC50
Method: Compounds were solubilized in DMSO in a concentration of 40 mM. (−)-2′-Desoxy-3′-thiacytidin (3TC) was used as the positive antiviral controls. The high-test concentrations were 10 μM for 4SC compounds and 1 μM for 3TC.
Briefly, HepG2-2.2.15 cells were plated in 96-well microtiter plates. Only the interior wells were utilized to reduce “edge effects” observed during cell culture; the exterior wells were filled with complete medium to help minimize sample evaporation. After 16-24 hours the confluent monolayer of HepG2-2.2.15 cells was washed and the medium was replaced with complete medium containing various concentrations of a test compound in triplicate. 3TC was used as the positive control, while media alone was added to cells as a negative control. Three days later the culture medium was replaced with fresh medium containing the appropriately diluted drug. Six days following the initial administration of the test compound, the cell culture supernatant was collected, treated with pronase and then used in a quantitative qPCR TaqMan assay. Antiviral activity was calculated from the reduction in HBV DNA levels (IC50). Cell Titer 96 ®AQueous One Solution Cell Proliferation kit (Promega, Madison, Wis.) was used to measure cell viability which is used to calculate toxicity (TC50). The therapeutic index (TI) was calculated as TC50/IC50

Ebola Virus = assay: microbe, parasite or virus in culture; type: cell-based; details: Zaire ebolavirus, Vero, read-out: Antiviral Activity % Inhibition
[5] = Cell viability in HepG2-2.2.15 cells (Cell Titer 96); type: cell-based; details: human, six days, read-out: TC50
Method: Anti-HBV assay was performed as described in Korba, B F and Milman, G., 1991 (A cell culture assay for compound which inhibits hepatitis B virus replication. Antiviral Res. 15: 217-228) and in Korba, B F and Gerin, J L., 1992 (Use of a standardized cell culture assay to assess activities of nucleoside analogs again hepatitis B virus replication. Antiviral Res. 19: 55-70) with modifications to measure extracellular HBV DNA copy with real-time PCR (qPCR/TaqMan). Briefly, HepG2-2.2.15 cells were plated in 96-well microtiter plates. Only the interior wells were utilized to reduce “edge effects” observed during cell culture; the exterior wells were filled with complete medium to help minimize sample evaporation. After 16-24 hours the confluent monolayer of HepG2-2.2.15 cells was washed and the medium was replaced with complete medium containing various concentrations of a test compound in triplicate. 3TC was used as the positive control, while media alone was added to cells as a negative control. Three days later the culture medium was replaced with fresh medium containing the appropriately diluted drug. Six days following the initial administration of the test compound, the cell culture supernatant was collected, treated with pronase and then used in a quantitative qPCR TaqMan assay. Antiviral activity was calculated from the reduction in HBV DNA levels (IC50). Cell Titer 96 ®AQueous One Solution Cell Proliferation kit (Promega, Madison, Wis.) was used to measure cell viability which is used to calculate toxicity (TC50). The therapeutic index (TI) was calculated as TC50/IC50

[6] = tested on: HCV subgenomic replicon of genotype 1b; assay: microbe, parasite or virus in culture; type: cell-based; details: Hepatitis C virus, 24 h, read-out: Antiviral Activity EC50/nM
in vitro [7] = details: African green monkey
in vitro [8] = details: African green monkey; remark: listed apart in the source
in vitro [9] = details: African green monkey; remark: listed apart in the source
in vitro [10] = details: human
HCMV AD 169-GFP = assay: microbe, parasite or virus in culture; type: cell-based, Human Cytomegalovirus; details: Human betaherpesvirus 5, Fibroblast, 168 h, read-out: Antiviral Activity EC50
[11] = tested on: ET cell line (luc-ubi-neo/ET), Huh7; assay: CytoTox-1 cytotoxicity in ET cells; details: 24 h, cell unit μM
[12] = Table 5, read-out: DHODH IC50/nM
[13] = Table 6, read-out: DHODH IC50/nM
[14] = Table 8, read-out: DHODH IC50/nM
[15] = Endpoint RT, seven days, read-out: EC50/nM
[16] = Endpoint RT, seven days, read-out: EC90/nM
[17] = Endpoint p24, seven days, read-out: EC50/nM
[18] = Endpoint p24, seven days, read-out: EC90/nM
[19] = Table 3, read-out: DHODH IC50/nM
[20] = Table 4, read-out: DHODH IC50/nM
[21] = Table 7, read-out: DHODH IC50/nM
[22] = 144 h, HepG2 2.2.15 cells, HBV DNA, six days

Sequence of dihydroorotate dehydrogenase (DHODH) (Q02127 whole entry): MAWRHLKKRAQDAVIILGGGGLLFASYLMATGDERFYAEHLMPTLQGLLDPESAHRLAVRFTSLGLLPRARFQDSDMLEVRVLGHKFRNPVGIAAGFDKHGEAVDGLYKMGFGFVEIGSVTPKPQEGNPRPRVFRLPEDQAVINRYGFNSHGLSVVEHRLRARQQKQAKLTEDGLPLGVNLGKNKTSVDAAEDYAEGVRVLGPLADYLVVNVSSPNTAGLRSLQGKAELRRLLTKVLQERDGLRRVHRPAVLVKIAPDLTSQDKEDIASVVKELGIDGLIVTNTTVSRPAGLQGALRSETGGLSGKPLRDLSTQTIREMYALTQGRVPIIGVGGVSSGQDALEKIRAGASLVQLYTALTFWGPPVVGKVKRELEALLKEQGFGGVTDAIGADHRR

| Structure (SMILES) | EC50 (RSV Strain Long) | EC50 (WNV Strain NY-99) | EC50 (YFV Strain 17D) | EC50 (DENV Type 2 (New Guinea)) | IC50 [4, 12] | IC50 [4, 13] | IC50 [4, 14] | TC50/nM (human PBMCs) | EC50 (Influenza Virus (H7N7)) | inhibition at 30 µM (Influenza Virus (H7N7)) | EC50 (HIV-191US005; [15]) | EC90 (HIV-191US005; [16]) | EC50 (HIV-191US005; [17]) | EC90 (HIV-191US005; [18]) | inhibition at 31.6 µM (Ebola Virus) | inhibition at 100 µM (Ebola Virus) | CC50 at 6 days [5] | EC50 [6] | IC50 [4, 19] | IC50 [4, 20] | also measured |
| --- | --- | --- | --- | --- | --- | --- | --- | --- | --- | --- | --- | --- | --- | --- | --- | --- | --- | --- | --- | --- | --- |
| NC(=O)c1ncn([C@@H]2O[C@H](CO)[C@@H](O)[C@H]2O)n1 [Ribavirin, reference compound] | 7.95 µg/mL | 22 µg/mL | 7.33 µg/mL | 26.5 µg/mL |  |  |  |  |  |  |  |  |  |  |  |  |  |  |  |  | TC50 (Vero cells [1]): >100 µg/mL; TC50 (Vero cells [2]): >100 µg/mL; TC50 (Vero cells [3]): >100 µg/mL |
| O=C(O)C1=C(C(=O)Nc2c(F)c(F)c(-c3cccc(OC(F)(F)F)c3)c(F)c2F)CCC1 [Compound 4, 2-(2,3,5,6-Tetrafluoro-3′-trifluoromethoxy-biphenyl-4-ylcarbamoyl)-cyclopent-1-enecarboxylic acid] | 2150 nM | > 10000 nM | 681 nM | 67 nM | < 20 nM | < 20 nM | < 20 nM | 42400 nM | ~3000 nM | > 90% | 60 nM | 210 nM | 80 nM | 240 nM | > 90% | > 98% | > 10000 nM | 80 nM |  |  | IC50 ([4]; DHODH IC50/nM, Table 1): < 20 nM; IC50 ([4]; DHODH IC50/nM, Table 2): < 20 nM; IC50 ([4]; DHODH IC50/nM, Table 3): < 20 nM; IC50 ([4]; DHODH IC50/nM, Table 4): < 20 nM; IC50 ([4]; DHODH IC50/nM, Table 7): < 20 nM; IC50 ([4]; Table 9, read-out: DHODH IC50/nM): < 20 nM; EC50 (HBV; HepG2 2.2.15, 144 h): > 10000 nM |
| O=C(Nc1c(F)cc(-c2cccc(OC(F)(F)F)c2)cc1F)c1ccsc1C(=O)O [Compound 17, 3-(3,5-difluoro-3′-(trifluoromethoxy)biphenyl-4-ylcarbamoyl)thiophene-2-carboxylic acid] | > 10000 nM | 6390 nM | 2250 nM | > 10000 nM |  | < 20 nM | < 20 nM |  | ~3000 nM |  |  |  |  |  |  |  | > 10000 nM |  | < 20 nM | < 20 nM | IC50 ([4]; DHODH IC50/nM, Table 5): < 20 nM; IC50 [4, 21]: < 20 nM; CC50 (in vitro [7]): > 10000 nM; CC50 (in vitro [8]): > 10000 nM; EC50 (HBV; [22]): 6400 nM; CC50 (in vitro [9]): > 10000 nM |
| COc1cccc(-c2ccc(NC(=O)C3=C(C(=O)O)CCC3)c(F)c2)c1 [Compound 6, 2-(3-Fluoro-3′-methoxy-biphenyl-4-ylcarbamoyl)-cyclopent-1-enecarboxylic acid] |  |  |  |  |  |  |  | >100000 nM |  | > 80% |  |  |  |  | 90% | > 98% |  | 4640 nM |  |  | EC50 (HIV-191US005; read-out: EC50/nM, Endpoint RT, seven days): 2190 nM; EC50 (HIV-191US005; read-out: EC50/nM, Endpoint p24, seven days): 1970 nM; EC90 (HIV-191US005; read-out: EC90/nM, Endpoint RT, seven days): 6110 nM; EC90 (HIV-191US005; read-out: EC90/nM, Endpoint p24, seven days): 6250 nM |
| O=C(Nc1c(F)c(F)c(-c2cccc(OC(F)(F)F)c2)c(F)c1F)c1ccsc1C(=O)O [Compound 1, 3-(2,3,5,6-Tetrafluoro-3′-trifluoromethoxy-biphenyl-4-ylcarbamoyl)-thiophene-2-carboxylic acid] | 2100 nM | 735 nM | 232 nM | 72 nM | < 20 nM | < 20 nM | < 20 nM | >100000 nM | ~1500 nM |  | 120 nM | 300 nM | 170 nM | 300 nM |  |  | > 10000 nM | 23 nM | < 20 nM | < 20 nM | IC50 [4]: < 20 nM; IC50 [4, 21]: < 20 nM; IC50 ([4]; Table 10, read-out: DHODH IC50/nM): < 20 nM; IC50 ([4]; read-out: DHODH IC50/nM, Table 2): < 20 nM; CC50 at 7 days (in vitro [10]): > 10000 nM; EC50 (HBV; [22]): 4800 nM; EC50 (HCMV AD 169-GFP): 780 nM; TC50 [11]: >100 µM |
